This is an account of results in patent US8481543B2, “Compounds for treating parasitic disease” (Oregon Health & Science University, priority 2008, dated 2013).

pIC50: −log10 of the molar value. Where two headings read alike, the source gives them in different places.

Test [1] relates to Plasmodium falciparum D6 strain (chloroquine sensitive). The test is described as follows: Antiplasmodial fluorescence-based SyBr Green assay, D6 strain. The test is classed as cell-based. The protocol: (§1) Parasite culture and drug susceptibility assays: Four different laboratory strains of P. falciparum were cultured in human erythrocytes by standard methods under a low oxygen atmosphere (5% O2, 5% CO2, 90% N2) in an environmental chamber (Trager, W., and J. Jensen. 1976. Human malaria parasites in continuous culture. Science 193:673-675). The culture medium was RPMI 1640, supplemented with 25 mM Hepes buffer, 25 mg/liter gentamicin sulfate, 45 mg/liter hypoxanthine, 10 mM glucose, 2 mM glutamine, and 0.5% Albumax II. The parasites were maintained in fresh human erythrocytes suspended at a 2% hematocrit in complete medium at 37° C. Stock cultures were sub-passaged every 3 to 4 days by transfer of infected red cells to a flask containing complete medium and uninfected erythrocytes.
(§2) In vitro antimalarial activity of the test compounds was assessed by a fluorescence-based method described previously by Smilkstein M., N. Sriwilaijaroen, J. X. Kelly, P. Wilairat, and M. Riscoe. 2004. Simple and inexpensive fluorescence-based technique for high-throughput antimalarial drug screening. Antimicrob Agents Chemother 48:1803-6. The experiments were set up in triplicate in 96 well plates with two-fold dilutions of each compound across the plate in a total volume of 100 μl and at a final red blood cell concentration of 2% (v/v). Stock solutions of each compound were prepared by dissolving in DMSO at 10 mM. […] In every case, an additional determination was performed to ensure bracketing of the IC50 value by at least an order of magnitude. Automated pipeting and dilution was carried out by a programmable Precision 2000 robotic station (Bio-Tek, Winooski, Vt.). An initial parasitemia of 0.2% was attained by addition of normal uninfected red cells to a stock culture of asynchronous parasite infected red cells (PRBC). The plates were incubated for 72 hrs at 37° C. in an atmosphere of 5% CO2, 5% O2, and 90% N2. After this period the SyBr Green I dye-detergent mixture (100 μl) was added and the plates were incubated at room temperature for an hour in the dark and then placed in a 96-well fluorescence plate reader (Gemini-EM, […]) for analysis with excitation and emission wavelength bands centered at 497 and 520 nm, respectively.

Test [2] has as its system Plasmodium falciparum Dd2 strain (multidrug-resistant). In words: Antiplasmodial fluorescence-based SyBr Green assay, Dd2 strain. In kind it is cell-based. The following applies: read-out: Antiplasmodial IC50, Dd2 strain. How it is done: as §1, §2
Test [3] has as its system Plasmodium falciparum 7G8 strain (multidrug-resistant). In words: Antiplasmodial fluorescence-based SyBr Green assay, 7G8 strain. In kind it is cell-based. The following applies: read-out: Antiplasmodial IC50, 7G8 strain. The protocol:
as §1, §2

In test [4] the test system is P. falciparum strains (D6, Dd2, Tm90.C2B, 7G8). The test is described as follows: Antiplasmodial SyBr Green assay, summary across strains. In kind it is cell-based, Plasmodium falciparum. The following applies: for pIC50: Plasmodium falciparum. How it is done: as §1
as §2, with “An initial parasitemia of 0.2% was attained by addition of normal uninfected red cells to a stock culture of asynchronous parasite infected red cells (PRBC). The plates were incubated for 72 hrs at 37° C. in an atmosphere of 5% CO2, 5% O2, and 90% N2.” left out

Test [5] deals with Plasmodium falciparum Tm90.C2B strain (multidrug-resistant). In words: Antiplasmodial fluorescence-based SyBr Green assay, Tm90.C2B strain. In kind it is cell-based. The following applies: read-out: Antiplasmodial IC50, Tm90.C2B strain. The protocol: as §1, §2
A further test deals with Plasmodium yoelii. In words: Modified Thompson test, suppression of patent infection in mice. In kind it is in vivo. The following applies: P. yoelii in CF1 mice; gavage daily for 3 days; smears on 4th day; pharmachins free base in miglyol 812, chloroquine in water.
The next test relates to P. berghei (ANKA/GFP). In words: Modified 4 day test in infected mice. In kind it is in vivo. The protocol: Follow-up studies with Pharmachin 128 were preformed in mice infected with P. berghei (ANKA/GFP) using a modified 4 day test. Animals (CF1) were inoculated (iv) with 1 million infected red blood cells, obtained from donor animals, and then randomly sorted into groups of 5 mice each.
In this set of experiments Pharmachin 128 was administered daily by gavage as the citrate salt dissolved in water (100 μl) for each of 4 days. Dosing was set at 64, 16, 4, 2, and 1 mg/kg/day, respectively, and including a no drug control. Blood films were prepared on the 5th day (i.e., the day after the final drug dose), fixed in methanol, stained with Giemsa, and viewed microscopically to assess parasitemia.

[6] abbreviates: Plasmodium falciparum, D6, 72 h; read-out: Antiplasmodial IC50, D6 strain.
The mark [7] stands for this setting: Plasmodium falciparum, multidrug-resistant Dd2 strain, 72 hrs, mean of at least two experiments in triplicate.
Where [8] appears, read: Plasmodium falciparum, multidrug-resistant 7G8 strain, 72 hrs, mean of at least two experiments in triplicate.
Setting [9] is: multidrug-resistant Tm90.C2B strain, 72 hrs, mean of at least two experiments in triplicate.
Where [10] appears, read: 64 mg/kg/day, gavage, 4 days, citrate salt.
Setting [11] is: P. berghei in CF1 mice, citrate salt in water by gavage daily for 4 days, parasitemia on 5th day.

Procedure for Plasmodium yoelii: Efficacy of compounds in vivo. […] This test monitors suppression of patent infection in female CF1 Swiss albino mice (≈20 gm). A test begins with the inoculation of Plasmodium yoelii parasitized erythrocytes (100,000 to 500,000; obtained from a donor animal) on the first day of the experiment (D0). After 24 hours, the standard agents or pharmachin compounds were administered by gavage at daily intervals for three successive days. Initially the test compounds were examined at 128 mg/kg/day, 64 mg/kg/day, 16 mg/kg/day and 4 mg/kg/day and including a vehicle-only control. […] The parasite burden in each blood sample was determined by direct microscopic analysis of methanol-fixed, Giemsa-stained blood smears. […] The ED50 value is the dosage of drug required to achieve a 50% reduction in parasitemia relative to the vehicle-only control; non-linear regression analysis was employed to generate ED50s from the accumulated data.
Mice were split into groups of 3 each and animals were dosed by gavage at the following dosages: 128 mg/kg; 64 mg/kg; 16 mg/kg; and 3 mg/kg. The drugs were administered daily for 3 days and blood smears were taken on the 4th day. […] ED50 values were calculated by graphical analysis of the dose-response effect.

Usually pIC50 stands for −log10 of the IC50, conventionally taken in molar units. With “5.7-Difluoro-3-Methyl-4-(3-t-butylaminpropyl-amino)-Quinoline [Pharmachin 130]”, the pIC50 in test [1] (chloroquine sensitive D6 strain; 72 hrs; mean of at least two experiments in triplicate; read-out: Antiplasmodial IC50, D6 strain) is 7.82; in test [2] (multidrug-resistant Dd2 strain, 72 hrs, mean of at least two experiments in triplicate), 7.66; in test [3] (multidrug-resistant 7G8 strain, 72 hrs, mean of at least two experiments in triplicate) it was 7.59.
Consider `Cc1cnc2cc(Cl)ccc2c1N1CCN(CCCN2CCN(c3c(C)cnc4cc(Cl)ccc34)CC2)CC1` [3-methyl-piperaquine], for which the pIC50 is 8.34 in test [1] (setting [6]), 8.19 in test [2] (setting [7]) and 8.02 in test [3] (setting [8]).
For the molecule `CCN(CC)CCCNC1=CCNc2cc(Cl)ccc21` [AQ-13, reference compound], the pIC50 in test [1] (setting [6]) was 8.14; in test [2] (setting [7]), 8.09; in test [3] (setting [8]) it was 7.92. In addition, in test [4] (in words), the “Antiplasmodial activity against all tested drug resistant strains” value is recorded as “high level of antiplasmodial activity”.
Turning to `Clc1ccc2c(NCCCNC34CC5CC(CC(C5)C3)C4)ccnc2c1` [AQ-13-AD, 7-Chloro-(3-adamantylamino)-aminopropylquinoline], the figures for the pIC50 in test [5] (setting [9]), in test [1] (setting [6]) and in test [2] (setting [7]) were 8.31, 8.42 and 8.38, respectively.
Regarding `O=C1C(O)=C([C@H]2CC[C@H](c3ccc(Cl)cc3)CC2)C(=O)c2ccccc21` [Atovaquone, reference compound], the pIC50 is 5.11 in test [5] (setting [9]), 10.00 in test [1] (setting [6]) and 10.00 in test [2] (setting [7]).
On to `CCN(CC)CCCC(C)Nc1ccnc2cc(Cl)ccc12` (stereo not shown) [Chloroquine, reference compound], for which the pIC50 was 6.84 in test [5] (TM90, 72 h); 7.95 in test [1] (Plasmodium falciparum, D6, 72 h, read-out: Antiplasmodial IC50, D6 strain); 6.80 in test [2] (Plasmodium falciparum, DD2, 72 h); 7.26 in test [3] (Plasmodium falciparum, 7G8, 72 h).
As for `CCN(CC)CCCNc1c(C)cnc2cc(Cl)ccc12` [Pharmachin 112, 7-Chloro-3-Methyl-4-(3-(diethylamino)-propylamino)-Quinoline], the negative-log IC50 (pIC50) in test [5] (setting [9]) was 7.78; in test [1] (setting [6]), 7.89; in test [2] (setting [7]), 7.75. The “ED50 (50% reduction in parasitemia)” value in the test with Plasmodium yoelii amounted to 6.5 mg/kg/day.
Regarding `CCN(CC)CCNc1c(C)cnc2cc(Cl)ccc12` [Pharmachin 127, 7-Chloro-3-Methyl-4-(3-(diethylamino)-ethylamino)-Quinoline], the pIC50 in test [5] (setting [9]) is 7.74; in test [1] (setting [6]), 7.85; in test [2] (setting [7]) it was 7.75.
Broadly, the ED50 is the midpoint of the dose-response relation. Take `Cc1cnc2cc(Cl)ccc2c1NCCCNC(C)(C)C` [Pharmachin 128, 7-Chloro-3-Methyl-4-(3-t-butylaminopropylamino)-quinoline]: the pIC50 in test [5] (setting [9]) is 7.92; in test [1] (setting [6]), 8.21; in test [2] (setting [7]) it was 7.94; in test [3] (setting [8]), 7.95; in test [4] (range over D6, Dd2, Tm90.C2B, 7G8, read-out: IC50 values ranging, all 4 P. falciparum strains), 7.92 to 8.21. In addition, the “Animals recrudesced 2 weeks after the last dose” value with P. berghei (ANKA/GFP) (16 mg/kg/day group, gavage, 4 days, citrate salt) is 2 of the 5. Besides, the “Bloodstream parasites on 5th day” value in the test with P. berghei (ANKA/GFP) (16 mg/kg/day, gavage, 4 days, citrate salt) is “completely cleared”; in the test with P. berghei (ANKA/GFP) (setting [10]), “completely cleared”. The “Parasitemia over full 30-day examination period (scored as cures)” value with P. berghei (ANKA/GFP) (setting [10]) is reported as “remained aparasitemic”. Further, the ED50 with P. berghei (ANKA/GFP) (setting [11]) is recorded as 2.7 mg/kg/day. Moreover, the ED90 with P. berghei (ANKA/GFP) (setting [11]) was determined as 4.7 mg/kg/day. The “ED50 (50% reduction in parasitemia)” value in the test with Plasmodium yoelii is listed as 2.5 mg/kg/day.
With `Cc1cnc2ccc(Cl)cc2c1NCCCNC(C)(C)C` [Pharmachin 129, 6-Chloro-3-Methyl-4-(3-t-butylaminopropylamino)-Quinoline], the negative logarithm of the IC50 (pIC50) in test [1] (setting [6]) was 7.02; in test [2] (setting [7]) it was 6.90.
As to `C=C[C@H]1C[N@@]2CC[C@H]1C[C@H]2[C@H](O)c1ccnc2ccc(OC)cc12` [Quinine, reference compound], the negative-log IC50 (pIC50) was 7.02 in test [5] (setting [9]), 7.72 in test [1] (setting [6]), 7.06 in test [2] (setting [7]) and 7.53 in test [3] (setting [8]).
In the case of `CCN(CC)CCCC(C)Nc1c(C)cnc2cc(Cl)ccc12` (stereo not shown) [Sontochin, 3-methyl-chloroquine, reference compound], the pIC50 in test [5] (setting [9]) was 7.86; in test [1] (setting [6]) it was 8.07; in test [2] (setting [7]), 7.95; in test [4] (range over strains as worded in text, read-out: IC50 values ranging, drug resistant strains of P. falciparum), 7.86 to 8.07.
